Laboratory results reported in patent US11707500B2, “Growth promoting peptides, and uses thereof” (NURITAS LIMITED, priority 2015, dated 2023).

Experiments:
[1] = test system: Human Dermal Fibroblasts (HDF); experiment: BrdU cell proliferation assay; format: cell-based; conditions: HDF incubated 24 h with 5, 0.5 or 0.05 μg/ml synthetic peptide; percentage of untreated control
Procedure: BrDu is incorporated into newly synthesised DNA strands of actively proliferating cells. Following partial denaturation of double stranded DNA, Brdu is detected immunochemically allowing the assessment of the population of cells which are synthesizing DNA.
Human Dermal Fibroblasts (HDF—Sigma 10605a) were seeded in a 96 well plate at 10,000 cells per well in DMEM containing 10% fetal calf serum (FCS), 1% Pen/strep, 1% L-glutamine and allowed to adhere for 24 h.
Following the initial 24 h incubation the cells were incubated with 5 μg/ml, 0.5 μg/ml or 0.05 μg/ml synthetic peptide for 24 h respectively.
After 18 h incubation with synthetic peptides 20 μl BrDu reagent was added to each well.
At 24 h incubation the cell were fixed and the amount of […] was measured using the BrdU Cell Proliferation Assay, all steps were carried out according to the manufacturer's instructions.
Results were calculated as a percentage of the untreated control. An increase in optical density reading indicates greatER incorporation of BrDu and increase cell proliferation.

[2] = test system: Human Dermal Fibroblasts (HDF); experiment: BrdU cell proliferation assay; format: cell-based; conditions: text on FIGS. 1-100; incubated with synthetic peptide 24 h; vs untreated control

Substance	INCREASE IN PROLIFERATION [1] [%]	increase in HDF cell proliferation [2] [%]
73 (ASSNLDLLGFG) [compound 73]	16	
74 (DEEEEQGEEEINK) [compound 74]	29	
83 (SRGPIYSNE) [compound 83]	32	
84 (EDDEEEEQGEEEINK) [compound 84]	20	
85 (DDEEEEQGEEEINK) [compound 85]	35	
93 (ITASSNLNLLGFG) [compound 93]	26	
97 (LVIPVNGPGKFE) [compound 97]	26	
98 (LVIPVNGPGKFEA) [compound 98]	49	
105 (LVIPVNGPGKF) [compound 105]	40	
112 (VVIIPAGHPVAITASSNLNLLGFG) [compound 112]	15	
114 (YPQLQDLDL) [compound 114]	119	
121 (LVIPVNGPGK) [compound 121]	48	
124 (VIPVNGPGK) [compound 124]	15	
146 (RHGEWRPSY) [compound 146]	80	
158 (NYDEGSEPRVPAQRE) [compound 158]	21	
181 (TIKLPAGTTSYLVNQDDEEDLRLVD) [compound 181]	33	
222 (IDGYDTPVEGR) [compound 222]	110	
226 (IYGPDTGVDYKDNQMR) [compound 226]	30	
247 (EGYYGEQQQQPGMTR) [compound 247]	28	
248 (GYYGEQQQQPGMTR) [compound 248]	86	
249 (EEGYYGEQQQQPGMTR) [compound 249]	30	
252 (SSEEGYYGEQQQQPGMTR) [compound 252]	111	
253 (SEEGYYGEQQQQPGMTR) [compound 253]	112	

Substance	INCREASE IN PROLIFERATION [1] [%]	increase in HDF cell proliferation [2] [%]
256 (YGEQQQQPGMTR) [compound 256]	117	
257 (YYGEQQQQPGMTR) [compound 257]	118	
270 (TVFNGVLRPGQLL) [compound 270]	47	
272 (NGVLRPGQL) [compound 272]	97	
285 (DALEPDNR) [compound 285]	81	
330 (VIPAGHPVAVR) [compound 330]	18	
337 (IEKILLEE) [compound 337]	8	
341 (EVEERSQNIF) [compound 341]	83	
359 (GAFTPLQYKSYQD) [compound 359]	15	
365 (GAFTPLQYK) [compound 365]	58	
403 (LGAPDVGHPM) [compound 403]	51	
410 (YRELGAPDVGHPMSE) [compound 410]	73	
452 (HPRPPKPDAPR) [compound 452]	76	
453 (LQQAPPPPQR) [compound 453]	25	
454 (VGWGEQPWSPY) [compound 454]	38	
455 (FHMPP) [compound 455]	47	
457 (FWMA) [compound 457]	114	
460 (HMPSS) [compound 460]	38	
461 (HRFR) [compound 461]	85	
462 (HRRS) [compound 462]	15	
463 (HSPR) [compound 463]	100	
464 (HWFA) [compound 464]	18	
465 (MFRR) [compound 465]	96	

Substance	INCREASE IN PROLIFERATION [1] [%]	increase in HDF cell proliferation [2] [%]
467 (MPPS) [compound 467]	90	
468 (MPRR) [compound 468]	82	
ASSNLDLLGFG [SEQ ID NO: 73]		16
DDEEEEQGEEEINK [SEQ ID NO: 85]		35
DEEEEQGEEEINK [SEQ ID NO: 74]		29
DSINALEPDHR [SEQ ID NO: 474]		121
EDDEEEEQGEEEINK [SEQ ID NO: 84]		20
EEGYYGEQQQQPGMTR [SEQ ID NO: 249]		30
EGYYGEQQQQPGMTR [SEQ ID NO: 247]		28
EVEERSQNIF [SEQ ID NO: 341]		83
FHMPP [SEQ ID NO: 455]		47
FWM (FWMA) [SEQ ID NO: 457]		114
GAFTPLQYK [SEQ ID NO: 365]		58
GAFTPLQYKSYQD [SEQ ID NO: 359]		15
GALMLPHYN [SEQ ID NO: 504]		119
GALMLPHYNSR [SEQ ID NO: 505]		118
GYYGEQQQQPGMTR [SEQ ID NO: 248]		86
HMPSS [SEQ ID NO: 460]		38
HPMS [SEQ ID NO: 495]		68
HPRPPKPDAPR [SEQ ID NO: 452]		76
HRFR [SEQ ID NO: 461]		85
HRRS [SEQ ID NO: 462]		15
HSPR [SEQ ID NO: 463]		100

Substance	INCREASE IN PROLIFERATION [1] [%]	increase in HDF cell proliferation [2] [%]
HWF (HWFA) [SEQ ID NO: 464]		18
IDGYDTPVEGR [SEQ ID NO: 222]		110
IEKILLEE [SEQ ID NO: 337]		8
IFEDAITIPGR [SEQ ID NO: 477]		81
ITASSNLNLLGFG [SEQ ID NO: 93]		26
IYGPDTGVDYKDNQMR [SEQ ID NO: 226]		30
KTLDYWPSLR [SEQ ID NO: 479]		106
LDALEPDNRIESE [SEQ ID NO: 478]		76
LEPDNR [SEQ ID NO: 485]		81
LGAPDVGHPM [SEQ ID NO: 403]		51
LQQAPPPPQR [SEQ ID NO: 453]		25
LRGFSK [SEQ ID NO: 501]		43
LVIPVNGPGK [SEQ ID NO: 121]		48
LVIPVNGPGKF [SEQ ID NO: 105]		40
LVIPVNGPGKFE [SEQ ID NO: 97]		26
LVIPVNGPGKFEA [SEQ ID NO: 98]		49
LVSHPIAAHEGR [SEQ ID NO: 482]		113
MFRR [SEQ ID NO: 465]		96
MPMP [SEQ ID NO: 497]		58
MPPS [SEQ ID NO: 467]		90
MPRR [SEQ ID NO: 468]		82
NGVLRPGQL [SEQ ID NO: 272]		97
NYDEGSEPRVPAQRE [SEQ ID NO: 158]		21

Substance	INCREASE IN PROLIFERATION [1] [%]	increase in HDF cell proliferation [2] [%]
PHMP [SEQ ID NO: 470]		119
PHMPS [SEQ ID NO: 471]		38
PNSM [SEQ ID NO: 499]		113
PRRF [SEQ ID NO: 472]		77
RHGEWGPSY [SEQ ID NO: 480]		102
RHGEWRPSY [SEQ ID NO: 146]		80
RSQNIF [SEQ ID NO: 502]		68
SEEGYYGEQQQQPGMTR [SEQ ID NO: 253]		112
SRGPIYSNE [SEQ ID NO: 83]		32
SSEEGYYGEQQQQPGMTR [SEQ ID NO: 252]		111
TIKLPAGTTSYLVNQDDEEDLRLVD [SEQ ID NO: 181]		33
TVFNGVLRPGQLL [SEQ ID NO: 270]		47
VGWGEQPWSPY [SEQ ID NO: 454]		38
VIPAGHPVAVR [SEQ ID NO: 330]		18
VIPVNGPGK [SEQ ID NO: 124]		15
VVIIPAGHPVAITASSNLNLLGFG [SEQ ID NO: 112]		15
WDP (WDPA) [SEQ ID NO: 500]		6
WMK (WMKA) [SEQ ID NO: 473]		41
YGEQQQQPGMTR [SEQ ID NO: 256]		117
YLRGFS [SEQ ID NO: 503]		125
YPQLQDLDL [SEQ ID NO: 114]		119
YRELGAPDVGHPMSE [SEQ ID NO: 410]		73
YYGEQQQQPGMTR [SEQ ID NO: 257]		118
